Measured values: PMC6175577, “BRCT domains of the DNA damage checkpoint proteins TOPBP1/Rad4 display distinct specificities for phosphopeptide ligands” (eLife, 2018)
Where a SMILES comes first, the peptide text is derived from it. [ ]: non-standard residue; d: D form. The star is where a group is joined. 5FAM = O=C1OC2(c3ccc(O)cc3Oc3cc(O)ccc32)c2ccc(C(=O)*)cc21; pT = C[C@@H](OP(=O)(O)O)[C@H](N)C(=O)O; pS = N[C@@H](COP(=O)(O)O)C(=O)O

Key:
TOPBP1-BRCT4,5 = biological target: T1, TOPBP1-BRCT4,5 (Homo sapiens, UniProt Q92547); assay: Fluorescence polarisation titration, TOPBP1-BRCT4,5; format: binding; conditions: read-out: Kd
T1 construct: made in house; host or cells: E. coli BL21(DE3)
T1 sequence (Q92547 549-746 limits assumed): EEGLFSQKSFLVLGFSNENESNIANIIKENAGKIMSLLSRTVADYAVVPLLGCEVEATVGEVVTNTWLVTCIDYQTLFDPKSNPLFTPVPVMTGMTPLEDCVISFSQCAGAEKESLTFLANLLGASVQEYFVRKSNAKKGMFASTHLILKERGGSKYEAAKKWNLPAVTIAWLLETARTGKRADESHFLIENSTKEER
Description: (§1) Fluorescein-labelled peptides (Peptide Protein Research Ltd, Fareham, UK) at a concentration of 200 nM, were incubated at room temperature with increasing concentrations of recombinant protein in 25 mM HEPES pH 7.5, 150 mM NaCl, 1 mM EDTA, 0.25 mM TCEP, 0.02% (v/v) Tween-20. Four parallel replicates of each titration were dispensed into a black 96-well polypropylene plate (VWR, Lutterworth, UK) for measurement. Fluorescence polarisation was measured in a CLARIOstar multimode microplate reader (BMG Labtech, Aylesbury, UK). Binding curves represent the mean of 4 independent experiments, with error bars indicating one standard deviation. All data were fitted by non-linear regression, to a one site-specific binding model in Prism seven for Mac OS X (v 7.0d, GraphPad Software) in order to calculate the reported dissociation constants (Kd). Low-affinity non-specific responses for which a binding curve could not be determined are marked as ND.

TOPBP1-BRCT7,8 = biological target: T2, TOPBP1-BRCT7,8 (Homo sapiens, UniProt Q92547); assay: Fluorescence polarisation titration, TOPBP1-BRCT7,8; format: binding
T2 construct: made in house; host or cells: E. coli BL21(DE3)
T2 sequence (Q92547 1264-1493 limits assumed): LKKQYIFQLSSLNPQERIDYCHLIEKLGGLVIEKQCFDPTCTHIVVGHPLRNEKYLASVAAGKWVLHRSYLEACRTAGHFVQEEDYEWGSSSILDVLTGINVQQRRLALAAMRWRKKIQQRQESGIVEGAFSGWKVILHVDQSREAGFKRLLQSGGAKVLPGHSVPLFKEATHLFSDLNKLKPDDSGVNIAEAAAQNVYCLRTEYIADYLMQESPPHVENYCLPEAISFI
Description: as §1

Rad4-BRCT3,4 = biological target: T3, Rad4-BRCT3,4 (Schizosaccharomyces pombe, UniProt P32372); assay: Fluorescence polarisation titration, Rad4-BRCT3,4; conditions: FP, fluorescein-peptide 200 nM, HEPES pH 7.5, room temperature; ND = low-affinity non-specific response, no binding curve
T3 construct: made in house; host or cells: E. coli BL21(DE3)
T3 sequence (P32372 291-494 limits assumed): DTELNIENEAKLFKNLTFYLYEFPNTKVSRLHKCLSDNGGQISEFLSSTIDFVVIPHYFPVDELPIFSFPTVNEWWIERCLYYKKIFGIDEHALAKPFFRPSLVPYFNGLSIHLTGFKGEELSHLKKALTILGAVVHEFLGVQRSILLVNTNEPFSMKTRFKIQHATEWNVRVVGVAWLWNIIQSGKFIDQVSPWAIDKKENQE
Description: as §1

SpNbs1 = biological target: T4, SpNbs1 (Schizosaccharomyces pombe, UniProt O43070); assay: Fluorescence polarisation titration, SpNbs1; format: binding, S. pombe; conditions: FP, fluorescein-peptide 200 nM, HEPES pH 7.5, room temperature, one-site fit, 4 replicates
T4 construct: made in house; host or cells: E. coli BL21(DE3)
T4 sequence (O43070 1-613): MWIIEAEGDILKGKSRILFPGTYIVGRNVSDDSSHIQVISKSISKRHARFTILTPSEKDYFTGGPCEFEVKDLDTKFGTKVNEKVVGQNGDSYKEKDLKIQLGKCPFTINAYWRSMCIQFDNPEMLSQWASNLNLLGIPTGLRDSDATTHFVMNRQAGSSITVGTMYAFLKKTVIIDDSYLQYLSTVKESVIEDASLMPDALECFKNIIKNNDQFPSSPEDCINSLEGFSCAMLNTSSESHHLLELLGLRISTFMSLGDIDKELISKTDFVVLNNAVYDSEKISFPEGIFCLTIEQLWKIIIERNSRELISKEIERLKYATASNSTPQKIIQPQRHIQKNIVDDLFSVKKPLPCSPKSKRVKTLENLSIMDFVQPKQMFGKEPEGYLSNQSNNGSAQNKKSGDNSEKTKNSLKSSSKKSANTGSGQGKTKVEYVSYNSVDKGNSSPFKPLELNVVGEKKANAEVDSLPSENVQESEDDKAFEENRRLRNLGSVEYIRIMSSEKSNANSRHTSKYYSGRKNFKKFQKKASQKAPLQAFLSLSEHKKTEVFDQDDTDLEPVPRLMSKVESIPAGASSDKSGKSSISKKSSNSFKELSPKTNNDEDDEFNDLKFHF
Description: as §1

Rad4-BRCT1,2 WT = biological target: T5, Rad4-BRCT1,2 WT (Schizosaccharomyces pombe, UniProt P32372); assay: Fluorescence polarisation titration, Rad4-BRCT1,2 wild-type; conditions: FP, fluorescein-peptide 200 nM, HEPES pH 7.5, room temperature, one-site fit, 4 replicates; ND = low-affinity non-specific response, no binding curve
T5 construct: made in house; host or cells: E. coli BL21(DE3)
T5 sequence (P32372 1-186 limits assumed): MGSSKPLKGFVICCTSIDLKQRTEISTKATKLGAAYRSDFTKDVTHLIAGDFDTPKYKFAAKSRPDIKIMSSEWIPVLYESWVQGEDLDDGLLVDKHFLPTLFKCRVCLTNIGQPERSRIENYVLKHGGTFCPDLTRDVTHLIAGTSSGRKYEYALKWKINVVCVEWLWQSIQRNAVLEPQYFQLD
Description: as §1

CC[C@H](C)[C@H](NC(=O)[C@H](CCC(=O)O)NC(=O)[C@H](CCC(=O)O)NC(=O)[C@@H]1CCCN1C(=O)[C@H](COP(=O)(O)O)NC(=O)[C@@H]1CCCN1C(=O)[C@@H]1CCCN1C(=O)[C@@H](NC(=O)[C@H](Cc1ccccc1)NC(=O)[C@H](CC(=O)O)NC(=O)[C@@H](NC(=O)[C@H](CC(=O)O)NC(=O)CNC(=O)[C@H](Cc1ccc(O)cc1)NC(=O)CNC(=O)c1ccc2c(c1)C(=O)OC21c2ccc(O)cc2Oc2cc(O)ccc21)[C@@H](C)O)C(C)C)C(=O)N[C@H](C(=O)N[C@@H](CO)C(=O)N[C@@H](C)C(=O)O)[C@@H](C)CC [BLM pS304, reference compound] (5FAM-GYGDTDFVPP[pS]PEEIISA-OH)
Kd (TOPBP1-BRCT4,5): 3460 ± 540 nM

CC[C@H](C)[C@H](NC(=O)[C@H](CO)NC(=O)[C@H](CCC(=O)O)NC(=O)[C@H](CC(=O)O)NC(=O)[C@H](CCC(=O)O)NC(=O)CNC(=O)[C@H](Cc1ccc(O)cc1)NC(=O)CNC(=O)c1ccc2c(c1)C(=O)OC21c2ccc(O)cc2Oc2cc(O)ccc21)C(=O)N[C@@H](Cc1ccc(O)cc1)C(=O)N[C@@H](Cc1ccccc1)C(=O)N[C@H](C(=O)N1CCC[C@H]1C(=O)N[C@@H](CCC(=O)O)C(=O)N[C@@H](CC(C)C)C(=O)N[C@@H](Cc1ccc(O)cc1)C(=O)N[C@@H](CC(=O)O)C(=O)N1CCC[C@H]1C(=O)N[C@@H](CCC(=O)O)C(=O)O)[C@@H](C)OP(=O)(O)O [FANCJ pT1133, reference compound] (5FAM-GYGEDESIYF[pT]PELYDPE-OH)
Kd (TOPBP1-BRCT7,8): 140 ± 10 nM

CC(C)[C@H](NC(=O)CNC(=O)[C@H](Cc1ccc(O)cc1)NC(=O)CNC(=O)c1ccc2c(c1)C(=O)OC21c2ccc(O)cc2Oc2cc(O)ccc21)C(=O)N[C@@H](CCC(=O)O)C(=O)NCC(=O)N[C@@H](CC(=O)O)C(=O)N[C@@H](Cc1c[nH]cn1)C(=O)N[C@@H](CO)C(=O)N[C@@H](COP(=O)(O)O)C(=O)N[C@@H](CC(=O)O)C(=O)N[C@H](C(=O)N[C@@H](CCC(=O)O)C(=O)N[C@@H](CCC(=O)O)C(=O)N[C@@H](CCC(=O)O)C(=O)N[C@H](C(=O)N[C@H](C(=O)N[C@@H](CO)C(=O)O)C(C)C)C(C)C)[C@@H](C)OP(=O)(O)O [Mdb1 pS216, pT218] (5FAM-GYGVEGDHS[pS]D[pT]EEEVVS-OH)
Kd (Rad4-BRCT3,4): no binding was observed | Kd (SpNbs1): sub-micromolar affinity | Kd (Rad4-BRCT1,2 WT): no binding was observed
